Data published in patent EP3822285A1, “VARIANT NISIN PEPTIDES” (University College Cork-National University of Ireland, Cork, priority 2019, dated 2021).
Converted amounts (≈) assume the structure as drawn. “And” between values parts separate entries of the source, which are not always exact repeats. Equal values may be shown once.

Key:
[1] = positive charge at position 17 replacing Methionine; Wiedemann et al., 2001; cited from earlier work
L. lactis HP [2] = assay: Deferred antagonism assay; assay type: cell-based; conditions: producing strain
Method: (§1) Mutagenesis of the nisA gene was carried out as described previously (Field et al., 2008). Briefly, saturation mutagenesis was carried out using pDF05 (pCI372-nisA) as template and using oligonucleotides containing an NNK codon in place of each native codon. PCR amplification was performed in a 50 µl reaction containing approximately 0.5 ng of target DNA (pDF05), 1 unit Phusion High-Fidelity DNA polymerase (Finnzymes, Finland), 1 mM dNTPs and 500 ng each of the appropriate forward and reverse oligonucleotide. The reaction was pre-heated at 98°C for 2 min, and then incubated for 29 cycles at 98°C for 30 s, 55°C for 15 s and 72°C for 3 min 30 s, and then finished by incubating at 72°C for 3 min 30 s. Amplified products were treated with Dpn1 (Stratagene) for 60 min at 37°C to digest template DNA and purified using the QIAquick PCR purification kit. Following transformation of E. coli Top 10 cells plasmid DNA was isolated and sequenced using primers pCI372FOR (5' […] 3') and pCI372REV (5' […] 3') to verify that mutagenesis had taken place. Approximately 150 transformants were chosen at random for each position and inoculated into 96-well plates containing GM17 chloramphenicol, incubated overnight and stored at -20°C after addition of 80% glycerol. Deferred antagonism assays were performed by replicating strains on GM17 agar plates and allowing them to grow overnight before overlaying with BHI agar (0.75% w/v agar) seeded with the appropriate indicator strain.
(§2) Previously, site-saturation mutagenesis-based strategies were used to generate strains producing bioengineered nisin derivatives in which all residues not involved in lanthionine ring formation (i.e. I1, T2, 14, S5, L6, P9, G10, K12, G14, A15, L16, M17, G18, N20, M21, K22, A24, H27, S29 130, H31, V32, S33 and K34) were each randomised to potentially all other natural amino acids, or whereby all three residues of the hinge-region (NMK) were randomised simultaneously (Rouse et al., 2012, Healy et al., 2013, Field et al., 2008). […] From this screen 76 variants of interest from the first round of screening were incorporated into a "mini-bank" for subsequent further analysis. The number of indicator strains was increased from five to thirteen to include S. uberis 43382, S. uberis DPC5344, S. dysgalactiae ATCC43078, L. lactis 303, L. cremoris KH, Lactobacillus bulgaricus NCDO2489, Lb. helveticus 2079 and Lb. acidophilus ATCC4356 (Table 1). Following this second round of screening, 6 variants of interest were deemed worthy of closer inspection. DNA sequencing of the mutated nisin gene as well as mass spectrometric analysis of the peptide produced by each strain established that these corresponded to nisin M17Q (methionine at position 17 altered to glutamine), nisin T2L (threonine 2 leucine) nisin HTK, VGA, VGV or VGT (where the hinge residues Asn-Met-Lys have been altered to His-Thr-Lys, Val-Gly-Ala, Val-Gly-Val or Val-Gly-Thr respectively). […] As a result, these derivatives were eliminated from this study, but will be the subject of further investigation as potential anti-mastitis antimicrobials. […] In the case of the derivatives nisin T2L and nisin HTK, the activity appeared reduced and equivalent to nisin A respectively (Figure 1), while improved activity was observed by both derivatives against S. agalactiae ATCC13813 and S. aureus RF122 (Table 2). On this basis, the nisin derivatives M17Q, T2L and HTK were selected for purification and specific activity assays. Purified peptides were subjected to Mass Spectrometry to confirm the correct mass in each case. In the case of T2L and HTK derivatives, the threonine remained in the unmodified form (data not shown).

L. lactis MG1363 [3] = assay: Deferred antagonism assay; assay type: cell-based; conditions: producing strain
Method: as §1, §2

S. agalactiae ATCC13813 = assay: Deferred antagonism assay; assay type: cell-based; conditions: producing strain
Method: as §1, §2

S. aureus RF122 [4] = assay: Deferred antagonism assay; assay type: cell-based; conditions: producing strain
Method: as §1, §2

B. longum UCC 44b = assay type: cell-based
Method: (§3) Minimum inhibitory concentration determinations were carried out in triplicate in 96 well microtitre plates. 96 well microtitre plates were pre-treated with bovine serum albumin (BSA) prior to addition of the peptides. Briefly, to each well of the microtitre plate 200 µL of phosphate buffered saline (PBS) containing 1% (w/v) bovine serum albumin (PBS/BSA) was added and incubated at 37°C for 30 min. The wells were washed with 200 µL PBS and allowed to dry. Target strains were grown overnight in the appropriate conditions and medium, subcultured into fresh broth and allowed to grow to an OD600 of ∼0.5, diluted to a final concentration of 10^5 cfu ml^-1 in a volume of 0.2 ml. The lyophilised peptides were resuspended in the appropriate media to a stock concentration of 30 µM. Wild type nisin and nisin mutant peptides were adjusted to a 7.5 or 5.0 µM or 500 nM starting concentration and 2-fold serial dilutions of each peptide were made in 96 well plates for a total of 12 dilutions.
(§4) To confirm that the observed enhanced activity of the nisin variants was due to increased specific activity, the activity of purified peptides were assessed using classical broth-based minimum inhibitory concentration (MIC) determination assays. […] Also included were the lactic acid bacteria targets L. lactis MG1363, L. lactis spp. lactis HP, B. longum UCC44b and Lb acidophilus ATCC 4356.

L. lactis MG1363 [5] = assay type: cell-based
Method: as §3, §4

[6] = system: Lb. acidophilus ATCC 4356; assay type: cell-based
Method: as §3, §4

S. aureus 20777 = assay type: cell-based
Method: as §3, §4

S. aureus 54072 = assay type: cell-based
Method: as §3, §4

S. aureus NCDO1499 = assay type: cell-based
Method: as §3, §4

S. aureus RF122 [7] = assay type: cell-based
Method: as §3, §4

L. lactis HP [8] = assay: Minimum inhibitory concentration assay; assay type: cell-based
Method: as §3, §4

S. aureus 272 = assay: Minimum inhibitory concentration assay; assay type: cell-based; conditions: purified peptide
Method: as §3, §4

S. aureus 513 = assay: Minimum inhibitory concentration assay; assay type: cell-based; conditions: purified peptide
Method: as §3, §4

S. aureus 5971 = assay: Minimum inhibitory concentration assay; assay type: cell-based; conditions: purified peptide
Method: as §3, §4

S. aureus DPC 5243 = assay: Minimum inhibitory concentration assay; assay type: cell-based; conditions: purified peptide
Method: as §3, §4

S. aureus DPC 5245 = assay: Minimum inhibitory concentration assay; assay type: cell-based; conditions: purified peptide
Method: as §3, §4

S. aureus DPC 5247 = assay: Minimum inhibitory concentration assay; assay type: cell-based; conditions: purified peptide
Method: as §3, §4

S. aureus ST528(MRSA) = assay: Minimum inhibitory concentration assay; assay type: cell-based; conditions: S. aureus ST528(MRSA); purified peptide
Method: as §3, §4

S. aureus ST534(MRSA) = assay: Minimum inhibitory concentration assay; assay type: cell-based; conditions: S. aureus ST534(MRSA); purified peptide
Method: as §3, §4

S. aureus strains = assay: Minimum inhibitory concentration assay, panel of S. aureus strains; assay type: cell-based; conditions: panel of 12 S. aureus isolates; compared to nisin A
Method: as §3, §4

Compound: Nisin Z M17K
- antimicrobial activity reduced to [1]: 50%

Compound: C=C(NC(=O)[C@@H](NC(=O)[C@H](Cc1c[nH]cn1)NC(=O)[C@@H](NC(=O)[C@H](CO)NC(=O)[C@@H]1CS[C@@H](C)[C@H]2NC(=O)[C@H](C)NC(=O)[C@H](NC(=O)[C@H](CCCCN)NC(=O)[C@@H](NC(=O)[C@H](Cc3c[nH]cn3)NC(=O)[C@@H]3CS[C@@H](C)[C@@H](NC(=O)[C@H](CCCCN)NC(=O)[C@@H]4CS[C@@H](C)[C@@H](NC(=O)[C@@H]5CSC[C@@H](NC(=O)/C(=C/C)NC(=O)[C@@H](N)[C@@H](C)CC)C(=O)N[C@@H]([C@@H](C)CC)C(=O)NC(=C)C(=O)N[C@@H](CC(C)C)C(=O)N5)C(=O)N5CCC[C@H]5C(=O)NCC(=O)N4)C(=O)NCC(=O)N[C@@H](C)C(=O)N[C@@H](CC(C)C)C(=O)N[C@@H](CCSC)C(=O)NCC(=O)N3)[C@@H](C)O)[C@H](C)SC[C@H](NC2=O)C(=O)N[C@@H](Cc2c[nH]cn2)C(=O)N1)[C@@H](C)CC)C(C)C)C(=O)N[C@@H](CCCCN)C(=O)O [HTK, nisin HTK]
- zone of inhibition (area of the zone of inhibition minus the area of the spot) (L. lactis HP [2]): 230.58 ± 6.71 mm2
- zone of inhibition (area of the zone of inhibition minus the area of the spot) (L. lactis MG1363 [3]): 137.70 ± 5.40 mm2
- zone of inhibition (area of the zone of inhibition minus the area of the spot) (S. agalactiae ATCC13813): 148.14 ± 3.66 mm2
- zone of inhibition (area of the zone of inhibition minus the area of the spot) (S. aureus RF122 [4]): 106.66 ± 3.00 mm2
- MIC (B. longum UCC 44b): 0.24 µg/mL (≈ 0.0717 µM)
- fold decreased activity compared to wild type peptide (B. longum UCC 44b): 4 fold
- MIC (L. lactis MG1363 [5]): 0.4 µg/mL (≈ 0.12 µM)
- MIC [6]: 0.12 µg/mL (≈ 0.0359 µM)
- fold reduction in specific activity compared to wild type nisin A [6]: 4 fold
- Specific activity (MIC) ([6]; purified peptide): 0.12 Mg/L and 0.044 µM
- MIC (S. aureus 20777): 0.125 µg/mL (≈ 0.0373 µM)
- MIC (S. aureus 54072): 0.25 µg/mL (≈ 0.0747 µM)
- MIC (S. aureus NCDO1499): 0.03 µg/mL (≈ 0.00896 µM)
- MIC (S. aureus RF122 [7]): 1 µg/mL (≈ 0.299 µM)
- fold reduction in potency (L. lactis HP [8]; compared to wild-type nisin A): 2 fold
- Specific activity (MIC) (L. lactis HP [8]; purified peptide): 0.4 Mg/L and 0.125 µM
- Specific activity (MIC) (S. aureus 272): 6 Mg/L and 1.875 µM
- Specific activity (MIC) (S. aureus 513): 6 Mg/L and 1.875 µM
- Specific activity (MIC) (S. aureus 5971): 12.57 Mg/L and 3.75 µM
- Specific activity (MIC) (S. aureus DPC 5243): 1 Mg/L and 0.312 µM
- Specific activity (MIC) (S. aureus DPC 5245): 1 Mg/L and 0.312 µM
- Specific activity (MIC) (S. aureus DPC 5247): 1 Mg/L and 0.312 µM
- Specific activity (MIC) (S. aureus ST528(MRSA)): 0.25 Mg/L and 0.078 µM
- Specific activity (MIC) (S. aureus ST534(MRSA)): 1 Mg/L and 0.312 µM
- number of S. aureus strains with enhanced specific activity (S. aureus strains): 6
